Source: US7465753B2, “Glycoside-containing liposome” (Otsuka Pharmaceutical Co., Ltd., priority 2003, dated 2008)
Where two headings read alike, the source gives them in different places.

Assays:
colon26 wild [1] = test: Cell proliferation inhibitory effect, MTT assay, colon26 wild; format: cell-based; details: glycoside employed alone, 37° C. for three days
Procedure: A cultured cancer cell line (colon26 wild) was inoculated into a 96-well plate (1×10^4 cells/100 μL/well), and subsequently a cholestanol glycoside (GlcNAcβ1,4GalChol, Fucα1,3GalChol, GalβChol, or Chol) or each type of the cholestanol glycoside liposomes formed in Example 1 was added to the 96-well plate, followed by incubation at 37° C. for three days. Thereafter, the MTT assay was performed, and the number of live cells was determined. The cell proliferation inhibition rate was obtained by use of the following formula. Cell proliferation inhibition rate(CPI rate)(%)=(1−OD of treated cells/OD of non-treated cells)×100

colon26 wild [2] = details: glycoside alone; conventionally shown; cited from earlier work

With `CC(C)CCC[C@@H](C)[C@H]1CC[C@H]2[C@@H]3CC[C@H]4C[C@@H](O[C@@H]5O[C@H](CO)[C@H](O)[C@H](O[C@@H]6O[C@@H](C)[C@@H](O)[C@@H](O)[C@@H]6O)[C@H]5O)CC[C@]4(C)[C@H]3CC[C@]12C` [Fucα1,3GalChol, 3-β-cholestanyl 3-O-(α-L-fucopyranosyl)-β-D-galactopyranoside] the “cell proliferation inhibitory effect” value (colon26 wild [1]) was “scarcely exhibits cell proliferation inhibitory effect”.
In the case of `CC(=O)N[C@H]1[C@H](O[C@@H]2[C@H](O)[C@@H](O)[C@H](O[C@H]3CC[C@@]4(C)[C@@H](CC[C@@H]5[C@@H]4CC[C@]4(C)[C@@H]([C@H](C)CCCC(C)C)CC[C@@H]54)C3)O[C@@H]2CO)O[C@H](CO)[C@@H](O)[C@@H]1O` [GlcNAcβ1,4GalChol, 3-β-cholestanyl 4-O-(2-acetamido-2-deoxy-β-D-glucopyranosyl)-β-D-galactopyranoside], the “cell proliferation inhibitory effect” value (colon26 wild [2]) is given as “has conventionally been shown to have cell proliferation inhibitory effect”.
